Measurements published in US9878984B2, “Anti-cancer compounds” (NORTHWESTERN UNIVERSITY, priority 2008, dated 2018).

How the values were obtained:
pBR322 plasmid DNA = experiment: DNA intercalation assay (topoisomerase I based plasmid DNA unwinding); format: biochemical; conditions: 10, 31.6, and 100 μM, human topoisomerase I
Description: DNA Intercalation Assay: A DNA unwinding assay was performed as previously described with minor modifications. Four Units of recombinant wild type human topoisomerase I (Topogen—Port Orange, Fla.) were incubated with reaction buffer (included with enzyme), ˜0.5 μg of pBR322 plasmid DNA, which is a mixture of form I and form II plasmid DNA, and water added to a final volume of 19 μL. The reactions were incubated at 37° C. for 30 min and then 1 μL of each compound was added to give a final concentration of 10, 31.6, and 100 μM (final solvent concentration of 1% DMSO) and the reaction mixture was incubated at 37° C. for another 30 min. The reaction was stopped by the addition of 5 μL gel loading dye. The samples were immediately loaded onto a 1% agarose gel and electrophoresis was performed at 50 V for 3 h at room temperature. Pictures of the gels were obtained using a Kodak Image Station 440 CF (Kodak—Rochester, N.Y.) equipped with a UV source.
This activity depends on the ability of these compounds to intercalate DNA, which is the proposed mechanism of cytotoxic action of amonafide and its analogs. Therefore, the intercalation of plasmid DNA by A1-A9 was compared with the intercalation by amonafide to determine if they behave similarly. A topoisomerase I (topo I) based plasmid DNA unwinding assay was used to determine the intercalation of each compound [1]. […]

[1] = molecular target: T1, wild type recombinant human NAT2 (NAT2*4) (Homo sapiens, UniProt P11245); experiment: NAT2 acetylation assay (mass spectrometry); format: in vitro ADME; conditions: 200 μM compound, 100 μg NAT2*4, 400 μM AcetylCoA, 10 min
T1 construct: made in house; host or cells: E. coli
T1 sequence (P11245 1-290): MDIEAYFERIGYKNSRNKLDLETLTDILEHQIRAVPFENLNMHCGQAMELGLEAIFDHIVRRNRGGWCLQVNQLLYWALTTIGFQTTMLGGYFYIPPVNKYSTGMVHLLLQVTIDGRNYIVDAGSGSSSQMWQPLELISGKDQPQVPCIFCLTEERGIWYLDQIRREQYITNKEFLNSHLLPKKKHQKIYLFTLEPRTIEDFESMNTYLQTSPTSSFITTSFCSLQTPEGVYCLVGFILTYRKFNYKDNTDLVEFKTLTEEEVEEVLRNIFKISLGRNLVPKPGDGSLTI
Description: NAT2 Assay: This assay was performed using a wild type recombinant human NAT2 (NAT2*4) that was purified from E. coli as previously described. The volume of each reaction was 500 μL with 200 μM amonafide, A1, or A2, 100 μg NAT2*4, and 400 μM AcetylCoA (Sigma-Poole, UK). Reactions were run for 0 or 10 min and stopped by addition of 500 μL of 20% (w/v) trichloroacetic acid (TCA-Sigma-Poole, UK) to give a final TCA concentration of […], which precipitates the enzyme. Two control assays, lacking either enzyme or compound, were performed for each compound. The reaction mixtures were prepared for analysis by isolation of the compounds from the reaction matrix by solid-phase extraction. In brief, 100 μL of the reaction mixture was added to 1 mL of 2% acetic acid. The sorbent of an Oasis HLB 30 mg Extraction Cartridge (Waters Chromatography—Milford, Mass.) was conditioned with 1 mL of methanol and 1 mL of water, the prepared sample was applied to the conditioned sorbent, and the sorbent was washed with 1 mL of 5% methanol. Samples were eluted with 200 μL methanol followed by 800 μL of 0.1% formic acid in methanol. The eluant was analyzed by an API 3000 LC-MS/MS system (Applied Biosystems—Foster City, Calif.). Samples were infused at 5 μL/min directly into the TurboIonSpray Source (Applied Biosystems—Foster City, Calif.), which was operated in the positive ionization mode. […]

SMILES	DNA intercalation (pBR322 plasmid DNA)	N-acetylation by NAT2 (ratio of acetylated to parent compound) [1]	N-acetylation by NAT2 (ratio of acetylated to parent compound) ([1]; listed as Amonafide)
CN(C)CCN1C(=O)c2cccc3c(N)ccc(c23)C1=O [A1, 6-amino-2-[2-(dimethylamino)ethyl]-1H-benz[de]isoquinoline-1,3(2H)-dione]	intercalated DNA to a lesser extent than amonafide and the other derivatives	–	–
CN(C)CCN1C(=O)c2cccc3cc(N)cc(c23)C1=O [amonafide, reference compound]	–	extensively acetylated	underwent extensive acetylation
